Data on three compounds can be found in ChEMBL document CHEMBL1143646, “Synthesis and HIV-1 integrase inhibitory activities of caffeic acid dimers derived from Salvia officinalis” (Bioorg Med Chem Lett, 2005).

A short description of assay [1]: Antiviral activity against HIV-1 1 early replicative steps in HeLa-bgal- CD4+ (P4) reporter cells. Format: functional. As to conditions: Human immunodeficiency virus 1.
Assay [2] deals with Human immunodeficiency virus type 1 integrase (Human immunodeficiency virus 1, UniProt Q7ZJM1). Kind of assay: Inhibitory concentration against HIV-1 integrase.
Human immunodeficiency virus type 1 integrase, sequence (Q7ZJM1 whole entry): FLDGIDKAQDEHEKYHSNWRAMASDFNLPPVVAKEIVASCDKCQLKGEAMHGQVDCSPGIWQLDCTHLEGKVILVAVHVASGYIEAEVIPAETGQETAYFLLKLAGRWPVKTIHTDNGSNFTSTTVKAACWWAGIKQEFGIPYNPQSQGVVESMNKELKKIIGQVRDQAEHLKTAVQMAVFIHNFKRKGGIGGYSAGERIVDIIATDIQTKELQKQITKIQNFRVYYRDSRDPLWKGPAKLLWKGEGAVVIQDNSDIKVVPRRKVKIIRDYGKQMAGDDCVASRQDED

In turn, `O=C(O)/C=C/c1ccc(O)c(Oc2cc3cc(O)c(O)cc3oc2=O)c1` had an EC50 in assay [1] of 31 µM. This compound also had an IC50 in assay [2] of 1000 nM.

`O=C(O)/C=C/c1ccc(Oc2cc3cc(O)c(O)cc3oc2=O)c(O)c1` yielded a half-maximal effective concentration (EC50) in assay [1] of 37 µM. Moreover, the midpoint of inhibition in assay [2], the IC50, lay at 2000 nM.

As to `O=c1oc2cc(O)c(O)cc2cc1O`, in assay [1], it took 12 µM to reach a half-maximal effect (EC50). Further, in assay [2], half-maximal inhibition (IC50) required 2000 nM.

The EC50 is the concentration giving half of the maximal effect. As a reminder, the IC50 is the concentration at which inhibition is half-maximal. The low end stands for inhibition by little substance, the high end for a need for much substance.
